Reference: US6608111B1, “Method for treating or preventing prostatic conditions” (Southern Illinois University Office of Research, …, priority 1998, dated 2003)
“Also recorded” adds a separate entry of the source.

Assays:
[1] = system: male and female Wistar rats; test: Experiment 2: chronic treatment of male and female rats, 5-6 weeks; format: in vivo, rat; conditions: for Food intake: n = 5
Procedure: Twenty-five male and 25 female Wistar rats, 7-8 weeks of age, were randomly assigned to groups of five animals, respectively, for treatment with vehicle only (V), estradiol (E), (±)-Z-BDDA, (+)-Z-BDDA, or (−)-Z-BDDA. Each animal in group V received a daily 0.1 cc injection of a 10% ethanol-90% olive oil solution; the other treatments received their respective compound as a daily 0.1 cc injection, e.g., 2.5 μg of compound/g of body weight, in a 10% ethanol-90% olive oil solution. A temperature of 21° C. and an artificial 12-h light-dark cycle were maintained in the animal room. All animals were maintained on standard chow in powdered form, the males for five weeks and the females for six weeks, then sacrificed after an overnight fast under i.p. pentobarbital anesthesia (50 mg/kg). Animal weight and food intake were measured weekly during the study and subsequent FER values were determined. During sacrifice, blood was collected (via cardiac puncture) for glucose, luteinizing hormone, prolactin and testosterone measurements. The amounts of luteinizing hormone, prolactin and testosterone were measured to help elucidate the target tissue of the respective compounds in male and female rats. Immediately following sacrifice the fat pads and reproductive organs were removed and weighed.
(§1) Experiments 1 and 2 employed a randomized design. All data were analyzed by one-way analysis of variance (ANOVA,)and post-hoc comparisons were made with Tukey pairwise comparisons test. Significance was confirmed at p≦0.05 (SYSTAT 7.0, SPSS INC., 1997), and all values are reported as means±standard error of the mean.

[2] = system: MCF-7 human mammary cancer cell line; conditions: human MCF-7 cells in culture; cited from earlier work
[3] = system: male and female Sprague-Dawley rats; test: Experiment 1: chronic treatment of male and female rats, 4 weeks; format: in vivo, rat; conditions: mean ± SEM; for Food intake: n = 5
Procedure: Twenty-five male and 25 female Sprague-Dawley rats, 9-10 weeks of age, were randomly assigned to groups of five animals, respectively, as a control group (no treatment) (C), for treatment with vehicle only (V), estradiol (E), (±)-Z-BDDA, or (+)-Z-BDDA. Each animal in group V received a daily 0.1 cc injection of a 10% ethanol-90% olive oil solution; the other treatments received their respective compound as a daily 0.1 cc injection, e.g., 2.5 μg of compound/g of body weight, in a 10% ethanol-90% olive oil solution. A temperature of 21° C. and an artificial 12-h light-dark cycle was maintained in the animal room. All animals were maintained on standard chow in powdered form for four weeks, then sacrificed after an overnight fast under i.p. pentobarbital anesthesia (50 mg/kg). Animal weight and food intake were measured weekly during the study, and the subsequent food-efficiency ratio [FER(g of weight change/g of food intake)] was determined. During sacrifice, blood was collected (via cardiac puncture) for cholesterol measurements. Immediately following sacrifice the fat pads and reproductive organs were removed and weighed.
as §1

[4] = in vivo assays, compared with estradiol; cited from earlier work
[5] = system: uterine cytosolic estrogen receptors (ER); conditions: competitive binding-inhibition, relative to E2; cited from earlier work
female mice = conditions: E2 5 g/animal/day, (±)-Z-BDDA 5, 50, and 500 g/animal/day, versus control group; cited from earlier work
[6] = even at 1000-times the estrogenic dosage; cited from earlier work
women = conditions: clinical; cited from earlier work
[7] = system: rats, cats, chicks, and guinea pigs; conditions: animals including rats; cited from earlier work
[8] = female rats, 2.5 ug/g of body weight daily, six weeks, mean ± SEM
[9] = male rats, 2.5 ug/g of body weight daily, five weeks, mean ± SEM
[10] = female rats, 2.5 ug/g of body weight daily
[11] = male rats, 2.5 ug/g of body weight daily

(±)-Z-bisdehydrodoisynolic acid [(±)-Z-BDDA]
Uterus/testis weight (g) ([1]; female rats (uterus), 2.5 ug/g of body weight daily, six weeks, mean ± SEM): 4.25 ± 1.04^1 g | Blood glucose [1, 8]: 80.40 ± 5.66 mg/dL | FER (food efficiency ratio) [1, 8]: 0.017 ± 0.003^1,2 | Food intake [1, 8]: 704.0 ± 51.7 g | weight gain (percent weight change) ([1]; female rats, both experiments (FIGS. 2 and 3), 2.5 μg/g daily): repress weight gain slightly more than did (+)-Z-BDDA and E2 | Uterus/testis weight (g) ([1]; male rats (testis), 2.5 ug/g of body weight daily, five weeks, mean ± SEM): 0.78 ± 0.02^1 g | testosterone ([1]; male rats, 2.5 μg/g daily, compared to the vehicle): less pronounced | Blood glucose [1, 9]: 98.60 ± 14.00 mg/dL | FER (food efficiency ratio) [1, 9]: −0.04 ± 0.01^1,2 | Prostate weight [1, 9]: 0.16 ± 0.02 g | Food intake [1, 9]: 530.0 ± 33.0 g | MCF-7 cell proliferation (estrogenicity) [2]: high estrogenic potency | Uterus/testis weight (g) ([3]; female rats (uterus), 2.5 ug/g of body weight daily): 2.04 ± 0.45^1 g | Food intake ([3]; female rats, 2.5 ug/g of body weight daily injection): 318.2 ± 21.8 g | FER (food efficiency ratio) ([3]; female rats, 2.5 ug/g of body weight daily, g of weight change/g of food intake): −0.023 ± 0.027^1 | Cholesterol (mg/dl) [3, 10]: 30.1 ± 2.8^1 mg/dl | Visceral fat [3, 10]: 1.3 ± 0.1 g | Uterus/testis weight (g) ([3]; male rats (testis), 2.5 ug/g of body weight daily): 0.72 ± 0.06^1,2 g | Cholesterol (mg/dl) [3, 11]: 36.2 ± 2.6^1,2 mg/dl | FER (food efficiency ratio) [3, 11]: −0.099 ± 0.009^1,2 | Prostate weight (g) [3, 11]: 0.08 ± 0.02^1,2 g | Visceral fat (g) [3, 11]: 4.5 ± 0.4^2 g | Food intake [3, 11]: 344.6 ± 15.5 g | estrogenicity: vaginal cornification and uterotropism [4]: rivaling or even surpassing estradiol | binding affinity as fraction of that of E2 [5]: 0.01-0.03 | rate of weight gain (female mice): diminished | toxicity and carcinogenicity [6]: neither toxicity nor carcinogenicity

CC[C@@H](c1ccc2cc(OC)ccc2c1)C(C)(C)C(=O)O [compound 2, (−)-3-[2-(6-methoxynaphthyl)]-2,2-dimethyl-pentanoic acid]
MCF-7 cell proliferation (estrogenicity) [2]: very little effect | estrogenic response in women / humans (women): high dosages were required to elicit strong estrogenic responses | estrogenic activity (estrogenicity) in animals [7]: strongest estrogenic activity; also recorded: highly estrogenic in animals, equivalent to 17β-estradiol
